Laboratory results from patent publication US10251408B2, “Catechin function enhancement method” (KYUSHU UNIVERSITY, NATIONAL UNIVERSITY CORPORATION, priority 2014, dated 2019).

Key:
[1] = system: high-fat high-sucrose diet-fed obese model mice; experiment: High-fat high-sucrose diet-fed mice: body weight, serum total cholesterol, LDL; type: in vivo, mouse; settings: C57BL/6J mice, Yabukita 0.2% and/or eriodictyol 0.45 g/kg diet, 8 weeks, FIG. 5
From the text: Male C57BL/6J mice at 12 weeks of age were preliminarily kept for 1 week and then divided into 5 groups such that the average body weight was equal in all groups, i.e., a control (AIN-93G-based diet) group, a HF/HS (high-fat high-sucrose diet) group, a Yabukita (0.2%) (HF/HS+Yabukita) group, an eriodictyol (HF/HS+eriodictyol) group, and a Yabukita+eriodictyol (HF/HS+Yabukita+eriodictyol) group. A feed supplemented with Yabukita (0.2%) and eriodictyol (0.45 g/kg diet) was given to the mice. The feed was given in an amount of 4 g/day and the mice were kept for 8 weeks under ad libitum drinking conditions. After being fasted for 16 hours, the mice were sacrificed by abdominal aortic puncture under isoflurane anesthesia. The collected blood samples were allowed to stand at 37° C. for 2 hours to cause coagulation and then centrifuged at 4° C. at 2000×g for 15 minutes to collect serum fractions. The values of serum total cholesterol and LDL were measured. […] Yabukita and eriodictyol were examined for their effect on obesity in high-fat high-sucrose diet-fed obese model mice. Male C57BL/6J mice at 12 weeks of age were preliminarily kept for 1 week and then divided into the respective groups such that the average body weight was equal in all groups. Each feed was given in an amount of 4 g/day and the mice were kept for 8 weeks under ad libitum drinking conditions. After being measured for their body weight, the mice were fasted for 16 hours and then sacrificed by abdominal aortic puncture under isoflurane anesthesia. Blood samples collected by puncture were allowed to stand at 37° C. for 2 hours to cause coagulation and then centrifuged at 4° C. at 2000×g for 15 minutes to collect serum fractions. The values of serum total cholesterol and LDL were measured.

[2] = system: 3-hydroxy-3-methyl-glutaryl-CoA reductase (HMGCR); experiment: Liver HMGCR mRNA by real-time PCR in HF/HS diet-fed mice; type: in vivo, mouse; settings: HF/HS diet-fed C57BL/6J mice; Yabukita 0.2% and/or eriodictyol 0.45 g/kg diet; 8 weeks; FIG. 6
From the text: (§1) Male C57BL/6J mice at 12 weeks of age were preliminarily kept for 1 week and then divided into 5 groups such that the average body weight was equal in all groups, i.e., a control (AIN-93G-based diet) group, a HF/HS (high-fat high-sucrose diet) group, a Yabukita (0.2%) (HF/HS+Yabukita) group, an eriodictyol (HF/HS+eriodictyol) group, and a Yabukita+eriodictyol (HF/HS+Yabukita+eriodictyol) group. A feed supplemented with Yabukita (0.2%) and eriodictyol (0.45 g/kg diet) was given to the mice. The feed was given in an amount of 4 g/day and the mice were kept for 8 weeks under ad libitum drinking conditions. After being fasted for 16 hours, the mice were sacrificed by abdominal aortic puncture under isoflurane anesthesia. […] Yabukita and eriodictyol were examined for their effect on cholesterol metabolism-related gene expression in the liver of high-fat high-sucrose diet-fed obese model mice. C57BL/6J mice were preliminarily kept for 1 week and then divided into the respective groups such that the average body weight was equal in all groups. Each feed was given in an amount of 4 g/day and the mice were kept for 8 weeks under ad libitum drinking conditions. After being fasted for 16 hours, the mice were sacrificed by abdominal aortic puncture under isoflurane anesthesia.

[3] = system: 3-hydroxy-3-methylglutaryl-CoA synthase (HMCGS); experiment: Liver HMCGS mRNA by real-time PCR in HF/HS diet-fed mice; type: in vivo, mouse; settings: HF/HS diet-fed C57BL/6J mice; Yabukita 0.2% and/or eriodictyol 0.45 g/kg diet; 8 weeks; FIG. 6
From the text: as §1

[4] = system: Human multiple myeloma cell line U266; experiment: Cancer cell death induction, viable cells by trypan blue assay (96-well plate, FIG. 9); type: cell-based; settings: 96 hours, in combination with EGCG, EGCG 3″Me or green tea extract
Method: Human multiple myeloma cell line U266 was subcultured and maintained in RPMI 1640 medium supplemented with 10% FCS under conditions of 37° C. and water vapor-saturated 5% CO2. The cells were maintained in the logarithmic growth phase. The RPMI 1640 medium used for culture was prepared as follows: per liter of ultrapure water, RPMI 1640 medium (10.4 g), HEPES (2.38 g), injectable penicillin G potassium (100,000 units), streptomycin sulfate injectable (100 mg) and NaHCO3 (2.0 g) were suspended and then filter-sterilized.
The lemon peel extract used in the experiment was prepared as follows. Peels (100 g) were collected with a grater from 6 lemons and 100% EtOH (100 mL) was added thereto, followed by mashing with a mortar. The mashed mixture was further strained through gauze to remove fibers and then filtered by gravity using a #1 paper filter and a funnel to remove precipitates, followed by centrifugation at 12000×g to collect the supernatant. The resulting ethanol extract of lemon was evaporated with an evaporator to volatilize the solvent, thereby obtaining an ethanol-extracted lemon fraction. This ethanol-extracted lemon fraction was dissolved again in DMSO to give a lemon extract. […] After culture, viable cells were counted by trypan blue assay.
To evaluate the effect of combined use of EGCG or a structural analog thereof or an EGCG-containing naturally occurring product and eriodictyol or a structural analog thereof or an eriodictyol-containing naturally occurring product, human multiple myeloma cell line U266 was adjusted to 5×10^4 cells/mL and seeded in a 96-well plate, and then cultured for 96 hours in the presence of EGCG and eriodictyol added at a final concentration of 5 μM each. After culture for 96 hours, viable cells were counted by trypan blue assay.

O=C1C[C@@H](c2ccc(O)c(O)c2)Oc2cc(O)cc(O)c21 [eriodictyol]
high-fat high-sucrose diet-induced increase in body weight [1]: no effect
high-fat high-sucrose diet-induced increase in serum cholesterol value [1]: no effect
high-fat high-sucrose diet-induced increase in LDL value ([1]; serum): no effect
mRNA expression level of HMGCR in the liver [2]: no effect
mRNA expression level of HMCGS in the liver [3]: no effect
enhancement of the anticancer effect (viable cells) of EGCG, EGCG 3″Me or a green tea extract [4]: remarkably enhance the anticancer effect
